The values below come from patent publication US6380248B1, “Metal-thiols as immunomodulating agents” (Winthrop University Hospital, priority 1998, dated 2002).

Where two headings read alike, the source gives them in different places.

The subject of one data set is bacteria. Briefly: Antibacterial activity of bismuth-thiols. It is filed as cell-based. Conditions: for antibacterial / antimicrobial activity in words: comparison between bismuth-thiols.
Data set [1] relates to mice. Briefly: Toxicity / lethality to mice. Particulars: mouse, in vivo.
Data set [2] relates to mice. Conditions: according to MSDS sheets from Aldrich Chemical Company; cited from earlier work.
Data set [3] can be described thus: Stability of the bismuth-thiol compound. It counts as physicochemical. Conditions: compared to bismuth:dimercaprol.
Another data set deals with TGFβ1. Description: Serum cytokine levels in CLP mice treated with BisEDT. It counts as in vivo. Particulars: BisEDT 1:2 (Bismuth 20 μg/kg BW) tail vein 5 h after CLP, sacrificed 18 h after injection.
For the next data set, the system named is TNFα. Described as above. Conditions: BisEDT 1:2 (Bismuth 20 μg/kg BW) tail vein 5 h after CLP, sacrificed 18 h after injection, * p<0.05. It is filed as in vivo.
The subject of data set [4] is IL-10. The description is as above. It is filed as in vivo. Conditions: BisEDT 1:2 (Bismuth 20 μg/kg BW) tail vein 5 h after CLP, sacrificed 18 h after injection.
Data set [5] deals with pro- and anti-inflammatory cytokines. Briefly: Polymicrobial sepsis induced up-regulation of cytokines in mice. Conditions: mouse, in vivo.
The test system of another data set is IL-1α. Briefly: Serum cytokine levels in CLP mice treated with BisEDT. Conditions: BisEDT 1:2 (Bismuth 20 μg/kg BW) tail vein 5 h after CLP, sacrificed 18 h after injection. It counts as in vivo.
Data set [6] has as its system macrophages/monocytes from CLP mice. It is filed as in vivo.
The test system of data set [7] is CLP mice (sepsis induced by cecal ligation and perforation). Description: Survival of septic mice (cecal ligation and perforation, CLP) treated with BisEDT. It is filed as in vivo. The procedure:
In the absence of any treatment, mortality rate is greater than 90% within 18-72 hours.
The object was to determine if Bismuth-ethanedithiol (BisEDT) in a molar ratio of 1:2, would protect CLP mice. Mortality rate of greater than 90% is observed within 18-72 hours in this model. A dose response study was performed to determine an optimal dose of BisEDT. […] Data were analyzed using Chi-Square and Krumkal Walkis tests. The data are presented below as average ±SEM. Data compared to control (dose 0) were considered significant (*) at p<0.05.

For data set [8], the system named is IL-10. It is filed as in vivo, mice.
Where [9] appears, read: repeat study, Injection Once a Day, dose 2 ug/kg BW, * p<0.05.
Where [10] appears, read: repeat study, Injection Once a Day, dose 200 ug/kg BW.
Setting [11] is: repeat study, Injection Twice a Day, dose 2 ug/kg BW, * p<0.05.
[12] abbreviates: repeat study, Injection Twice a Day, dose 200 ug/kg BW.

With bismuth:2-mercaptoethylamine, the “decrease in activity compared with bismuth:β-mercaptoethanol” value with bacteria (antibacterial activity) is reported as 5 fold.
“dimercapto-succinic acid [reference compound]”: the “antibacterial synergy of the thiol with bismuth” value is given as “largely abolished synergy with bismuth” with bacteria and “did not show antibacterial synergy” in the data set with bacteria (listed as DMSA).
Take Bismuth-2,3-BDT (2,3-butanedithiol): the “antibacterial / antimicrobial activity in words” value in the data set with bacteria is “as good as bismuth:ethanedithiol”.
On to `CC(O)C(C)S` (centres unmarked) [3-mercapto-2-butanol], for which the “amount of thiol required relative to dimercaprol to achieve similar inhibitory activity” value in the data set on bacteria (in combination with bismuth) is on record as “Approximately 3 times”.
Bismuth-ethanedithiol [BisEDT]: in the data set on mice [1], the “toxicity compared to bismuth:dimercaprol” value was “no more toxic”. In addition, the lethality to mice result in the data set on mice [2] is on record as “very similar to that of dimercaprol”. Further, the stability entry in data set [3] is “more stable compound at all molar ratios and pHs”. The “antibacterial / antimicrobial activity in words” value in the data set with bacteria is listed as “stronger antimicrobial agent than bismuth:dimercaprol”. For the same compound, the “Serum TGFβ1 level” value in the data set with TGFβ1 came to 24.8 ± 3.6 pg/mL. In addition, in the data set with TNFα, the “Serum TNFα level” value was 13.7 ± 2.9* pg/ml. Further, in the data set with IL-10 [4], the “Serum IL-10 level” value came out at 165 ± 69 pg/mL. Also, the “prevention of sepsis induced up-regulation of pro- and anti-inflammatory cytokines” value in data set [5] was “able to prevent the polymicrobial sepsis induced up-regulation of both pro- and anti-inflammatory cytokines”. For the same compound, in the data set with IL-1α, the “Serum IL-1α level” value worked out at 10.5 ± 1.1 pg/mL. Also, in [6] (from BisEDT-treated CLP mice (Bismuth 20 μg/kg BW), without in vitro stimulation), the “amounts of superoxide, H2O2 and NO2- produced by macrophages/monocytes, unstimulated” value is “in between that produced by the control and untreated CLP mice but not significantly different from either of these groups”. Further, the “release of superoxide, H2O2 and NO2- by macrophages/monocytes, stimulated” value in data set [6] (mouse, in vivo) is reported as “significantly increased”. Further, the “Survival” value is 64 ± 43 h in data set [7] (dose 2 ug/kg BW via tail vein once a day for three days, observed 8 days, average ±SEM, dose response study); 75 ± 21 h in data set [7] (dose 200 ug/kg BW via tail vein once a day for three days, average ±SEM, dose response study); 48 ± 24 h in data set [7] (dose 2000 ug/kg BW via tail vein once a day for three days, average ±SEM, dose response study); 75 ± 21 h in data set [7] (setting [10]); 97 ± 40 h in [7] (setting [12]). Moreover, the “Survival (%)” value in data set [7] (dose 2 ug/kg BW via tail vein once a day for three days, observed 8 days, dose response study) was 20%; in data set [7] (dose 20 ug/kg BW via tail vein once a day for three days, dose response study, * p<0.05 vs dose 0), 60* %; in [7] (dose 200 ug/kg BW via tail vein once a day for three days, dose response study), 40%; in [7] (dose 2000 ug/kg BW via tail vein once a day for three days, dose response study), 20%; in data set [7] (setting [9]) it was 56* %; in data set [7] (setting [10]), 40%. The “Survival (%)” value in data set [7] (setting [11]) is reported as 44* %; in data set [7] (setting [12]), 40%. Moreover, the “Survival (hrs.)” value in [7] (dose 20 ug/kg BW via tail vein once a day for three days, average ±SEM, dose response study, * p<0.05 vs dose 0) was 110 ± 35* hrs; in data set [7] (setting [9]), 109 ± 29* hrs; in [7] (setting [11]) it was 103 ± 29* hrs. Besides, the effect on survival entry in data set [7] (dose of 20 μg/kg body weight) is on record as “significantly increase survival”. In addition, in data set [7] (once daily to twice daily, P=0.73), the “effect of increase in dose frequency on survival” value is recorded as “did not increase survival”. Also, the “percentage survival, overall” value in data set [7] (treatment group versus 0% (control), summary of Example 1) is recorded as 60%. In data set [7] (with treatment versus approximately 36 hours without treatment, summary of Example 1), the “survivability, overall” value came out at 108 h. For the same compound, in the data set on IL-10 [8] (from CLP mice treated with BisEDT, unstimulated), the “IL-10 production in vitro by splenic macrophages” value was “do not produce IL-10 in vitro as much as the macrophages from BisEDT untreated CLP animals”. Moreover, in the data set with IL-10 [8] (mouse, in vivo), the “IL-10 release by splenic macrophages, stimulated” value is listed as “did not significantly up-regulate the IL-10 release”.
In the case of `O=S(=O)(O)CC(S)CS` (centres unmarked) [dimercaptopropane-1-sulfonic acid, reference compound], the “antibacterial synergy of the thiol with bismuth” value in the data set on bacteria is reported as “did not show antibacterial synergy”.
With “Bismuth:propanedithiol (1,3-propanedithiol)”, the “antibacterial / antimicrobial activity in words” value in the data set on bacteria is “works quite well, but not as well as the vicinal dithiols”.
Turning to `SCCCCS.[Bi]` [Bismuth-1,4-butanedithiol], the “less antibacterial activity (compared with vicinal dithiols Bismuth-2,3-BDT / bismuth:ethanedithiol)” value in the data set with bacteria is reported as roughly 100 fold.
